According to ChEMBL document CHEMBL1140986, “Sidechain-linked inhibitors of HIV-1 protease dimerization” (Bioorg Med Chem, 2009):
≈ marks a conversion by molar mass, not a printed value. Calls of active or inactive are those of the source. The calls are words filed in the database; no cut-off is given here. Non-standard residues stand in square brackets, D forms with d. Residues, ends and D or L forms follow the SMILES beside them. *: point of attachment. C16 diacid = O=C(O)CCCCCCCCCCCCCCC(=O)*; aThr = C[C@H](O)[C@H](N)C(=O)O

Columns and labels:
Protease [1] = molecular target: T1, Protease (Human immunodeficiency virus 1, UniProt Q9YQ12); experiment: Inhibition of HIV1 protease by continuous fluorometric assay
Protease [2] = molecular target: T1, Protease; experiment: Inhibition of HIV1 protease dimerization by Zhang-Poorman kinetic assay
[3] = Solubility in water; type: physicochemical
[4] = molecular target: Protease (Human immunodeficiency virus 1) (UniProt Q9YQ12); experiment: Binding affinity to HIV1 protease active site at 10 to 50 uM after 1 hr by fluorescence-based cross competition kinetic assay in presence of acetyl-pepstatin
Protease [5] = molecular target: T1, Protease; experiment: Inhibition of HIV1 protease by competitive inhibition assay
[6] = molecular target: Protease (Human immunodeficiency virus 1) (UniProt Q9YQ12); experiment: Binding affinity to HIV1 protease allosteric site at 10 to 50 uM after 1 hr by fluorescence-based cross competition kinetic assay in presence of acetyl-pepstatin
[7] = molecular target: Protease (Human immunodeficiency virus 1) (UniProt Q9YQ12); experiment: Inhibition of HIV1 protease at 130 uM by competitive Lineweaver-Burke plot
[8] = molecular target: Protease (Human immunodeficiency virus 1) (UniProt Q9YQ12); experiment: Inhibition of HIV1 protease dimerization at 65.3 uM by Zhang-Poorman kinetic assay

IC50 (Protease [1]) [µM] | Ki (Protease [2]) [µM] | Structure (SMILES) | also measured
2.5 | – | CC(C)C[C@H](NC(=O)[C@H](CSCCOCCOCCSC[C@H](NC(=O)CCC1CCCCC1)C(=O)N[C@@H](Cc1ccccc1)C(=O)O)NC(=O)CCC1CCCCC1)C(=O)N[C@@H](Cc1ccccc1)C(N)=O | –
64 | 40.1 | CC[C@@H](C)[C@H](NC(=O)[C@H](CSCCOCCOCCSC[C@H](NC(=O)CCCCC1CCCCC1)C(=O)N[C@@H](Cc1ccccc1)C(=O)O)NC(=O)CCCCC1CCCCC1)C(=O)N[C@@H](Cc1ccccc1)C(N)=O | –
6.5 | – | CC(C)C[C@H](NC(=O)[C@H](CSCCOCCOCCSC[C@H](NC(=O)CCc1ccccc1)C(=O)N[C@@H](Cc1ccccc1)C(=O)O)NC(=O)CCc1ccccc1)C(=O)N[C@@H](Cc1ccccc1)C(N)=O | –
– | – | CC(C)C[C@H](NC(=O)[C@@H](NC(=O)CCCCCCCCCCCCCCC(=O)N[C@@H](CC(N)=O)C(=O)N[C@@H](Cc1ccccc1)C(=O)O)[C@@H](C)O)C(=O)N[C@@H](Cc1ccccc1)C(N)=O ({Phe-Asn-C16 diacid}-Thr-Leu-Phe-NH2) | solubility [3]: 1 µM (≈ 0.908 µg/mL)
2.5 | – | CC(C)C[C@H](NC(=O)[C@H](CSCCOCCOCCSC[C@H](NC(=O)Cc1ccccc1)C(=O)N[C@@H](Cc1ccccc1)C(=O)O)NC(=O)Cc1ccccc1)C(=O)N[C@@H](Cc1ccccc1)C(N)=O | –
50 | 6.8 | CCCCC(=O)N[C@@H](CSCCOCCOCCSC[C@H](NC(=O)CCCC)C(=O)N[C@@H](CC(C)C)C(=O)N[C@@H](Cc1ccccc1)C(N)=O)C(=O)N[C@@H](Cc1ccccc1)C(=O)O | –
9.5 | – | CC(C)C[C@H](NC(=O)[C@H](CSCCOCCOCCSC[C@H](NC(=O)CC1CCCCC1)C(=O)N[C@@H](Cc1ccccc1)C(=O)O)NC(=O)CC1CCCCC1)C(=O)N[C@@H](Cc1ccccc1)C(N)=O | –
87 | 8.3 | CCCC(=O)N[C@@H](CSCCOCCOCCSC[C@H](NC(=O)CCC)C(=O)N[C@@H](CC(C)C)C(=O)N[C@@H](Cc1ccccc1)C(N)=O)C(=O)N[C@@H](Cc1ccccc1)C(=O)O | –
19.5 | – | CC(C)C[C@H](NC(=O)[C@H](CSCCOCCOCCSC[C@H](NC(=O)C1CCCCC1)C(=O)N[C@@H](Cc1ccccc1)C(=O)O)NC(=O)C1CCCCC1)C(=O)N[C@@H](Cc1ccccc1)C(N)=O | –
675 | 88 | CC(C)C[C@H](NC(=O)[C@H](CSCCOCCOCCSC[C@H](NC(=O)CCCCC1CCCCC1)C(=O)N[C@@H](Cc1ccccc1)C(=O)O)NC(=O)CCCCC1CCCCC1)C(=O)N[C@@H](Cc1ccccc1)C(N)=O | –
– | 3 | CC(C)C[C@H](NC(=O)[C@@H](NC(=O)CCCCCCCCCCCCCCC(=O)N[C@@H](CC(N)=O)C(=O)N[C@@H](Cc1ccccc1)C(=O)O)[C@H](C)O)C(=O)N[C@@H](Cc1ccccc1)C(N)=O ({Phe-Asn-C16 diacid}-[aThr]-Leu-Phe-NH2) | –
4 | 1.3 | CCCCCCC(=O)N[C@@H](CSCCOCCOCCSC[C@H](NC(=O)CCCCCC)C(=O)N[C@@H](CC(C)C)C(=O)N[C@@H](Cc1ccccc1)C(N)=O)C(=O)N[C@@H](Cc1ccccc1)C(=O)O | solubility [3]: 80 µM (≈ 79 µg/mL)
14.9 | 2.3 | CCCCCC(=O)N[C@@H](CSCCOCCOCCSC[C@H](NC(=O)CCCCC)C(=O)N[C@@H](CC(C)C)C(=O)N[C@@H](Cc1ccccc1)C(N)=O)C(=O)N[C@@H](Cc1ccccc1)C(=O)O | solubility [3]: 90 µM (≈ 86.3 µg/mL)
130 | – | CCC(=O)N[C@@H](CSCCOCCOCCSC[C@H](NC(=O)CC)C(=O)N[C@@H](CC(C)C)C(=O)N[C@@H](Cc1ccccc1)C(N)=O)C(=O)N[C@@H](Cc1ccccc1)C(=O)O | Activity [4]: inactive; Ki (Protease [5]): 16.9 µM; Activity [6]: Active; Activity [7]: Active; Activity [8]: inactive
2.9 | 1.25 | CC(C)C[C@H](NC(=O)[C@H](CSCCOCCOCCSC[C@H](NC(=O)COc1ccccc1)C(=O)N[C@@H](Cc1ccccc1)C(=O)O)NC(=O)COc1ccccc1)C(=O)N[C@@H](Cc1ccccc1)C(N)=O | –
1.2 | 510 | CCCCCCC(=O)N[C@@H](CSCCOCCOCCSC[C@H](NC(=O)CCCCCC)C(=O)N[C@H](C(=O)N[C@@H](Cc1ccccc1)C(N)=O)[C@H](C)CC)C(=O)N[C@@H](Cc1ccccc1)C(=O)O | –
